Laboratory results taken from EP3753932A1, “SUBSTITUTED BICYCLIC DERIVATIVES HAVING MULTIMODAL ACTIVITY AGAINST PAIN” (priority 2019, dated 2020).
Where two headings read alike, the source gives them in different places.

Key:
[1] = biological target: Human α2δ-1 subunit of Cav2.2 calcium channel (Homo sapiens, UniProt P54289); test: Human α2δ-1 subunit of Cav2.2 calcium channel assay ([3H]-Gabapentin binding)
Protocol: Human α2δ-1 subunit of Cav2.2 calcium channel assay
Human α2δ-1 enriched membranes (2.5 µg) were incubated with 15 nM of radiolabeled [3H]-Gabapentin in assay buffer containing Hepes-KOH 10mM, pH 7.4. NSB (non specific binding) was measured by adding 10 µM pregabalin. The binding of the test compound was measured at either one concentration (% inhibition at 1 or 10 µM) or five different concentrations to determine affinity values (Ki). After 60 min incubation at 27 °C, binding reaction was terminated by filtering through Multiscreen GF/C (Millipore) presoaked in 0.5 % polyethyleneimine in Vacuum Manifold Station, followed by 3 washes with ice-cold filtration buffer containing 50 mM Tris-HCl, pH 7.4. Filter plates were dried at 60 °C for 1 hour and 30 µl of scintillation cocktail were added to each well before radioactivity reading. Readings were performed in a Trilux 1450 Microbeta radioactive counter (Perkin Elmer).

[2] = biological target: T1, Human µ-opioid receptor (Homo sapiens, UniProt P35372); test: Human µ-opioid receptor radioligand assay ([3H]-DAMGO); type: binding
T1 construct: expressed in transfected cells; host or cells: CHO-K1
T1 sequence (P35372 whole entry): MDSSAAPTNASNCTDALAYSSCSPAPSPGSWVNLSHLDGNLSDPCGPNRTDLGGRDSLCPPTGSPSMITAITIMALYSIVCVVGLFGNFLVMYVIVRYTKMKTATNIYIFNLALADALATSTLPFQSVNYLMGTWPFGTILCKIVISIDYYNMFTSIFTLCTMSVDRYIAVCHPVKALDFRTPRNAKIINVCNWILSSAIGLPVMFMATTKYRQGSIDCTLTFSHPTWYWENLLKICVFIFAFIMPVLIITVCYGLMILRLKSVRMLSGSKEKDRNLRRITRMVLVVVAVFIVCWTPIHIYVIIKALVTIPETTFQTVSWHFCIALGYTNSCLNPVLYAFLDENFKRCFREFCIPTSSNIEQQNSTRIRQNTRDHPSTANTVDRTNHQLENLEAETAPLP
Protocol: Human µ-opioid receptor radioligand assay
Transfected CHO-K1 cell membranes (20 µg) were incubated with [^3H]-DAMGO (1 nM) in assay buffer containing Tris-HCl 50 mM, MgCl2 5 mM at pH 7.4. NBS (non-specific binding) was measured by adding 10 µM Naloxone. The binding of the test compound was measured at either one concentration (% inhibition at 1 or 10 µM) or five different concentrations to determine affinity values (Ki). Plates were incubated at 27 °C for 60 min. After the incubation period, the reaction mixture was then transferred to MultiScreen HTS, FC plates (Millipore), filtered and plates were washed 3 times with ice-cold 10 mM Tris-HCl (pH 7.4). Filters were dried and counted at approximately 40% efficiency in a MicroBeta scintillation counter (Perkin-Elmer) using EcoScint liquid scintillation cocktail.

[3] = human α2δ-1 enriched membranes, [3H]-Gabapentin 15 nM, read-out: α2δ-1 binding
[4] = transfected CHO-K1 cell membranes, [3H]-DAMGO 1 nM, read-out: µ-binding

Human α2δ-1 subunit of Cav2.2 calcium channel, sequence (P54289 25-1103): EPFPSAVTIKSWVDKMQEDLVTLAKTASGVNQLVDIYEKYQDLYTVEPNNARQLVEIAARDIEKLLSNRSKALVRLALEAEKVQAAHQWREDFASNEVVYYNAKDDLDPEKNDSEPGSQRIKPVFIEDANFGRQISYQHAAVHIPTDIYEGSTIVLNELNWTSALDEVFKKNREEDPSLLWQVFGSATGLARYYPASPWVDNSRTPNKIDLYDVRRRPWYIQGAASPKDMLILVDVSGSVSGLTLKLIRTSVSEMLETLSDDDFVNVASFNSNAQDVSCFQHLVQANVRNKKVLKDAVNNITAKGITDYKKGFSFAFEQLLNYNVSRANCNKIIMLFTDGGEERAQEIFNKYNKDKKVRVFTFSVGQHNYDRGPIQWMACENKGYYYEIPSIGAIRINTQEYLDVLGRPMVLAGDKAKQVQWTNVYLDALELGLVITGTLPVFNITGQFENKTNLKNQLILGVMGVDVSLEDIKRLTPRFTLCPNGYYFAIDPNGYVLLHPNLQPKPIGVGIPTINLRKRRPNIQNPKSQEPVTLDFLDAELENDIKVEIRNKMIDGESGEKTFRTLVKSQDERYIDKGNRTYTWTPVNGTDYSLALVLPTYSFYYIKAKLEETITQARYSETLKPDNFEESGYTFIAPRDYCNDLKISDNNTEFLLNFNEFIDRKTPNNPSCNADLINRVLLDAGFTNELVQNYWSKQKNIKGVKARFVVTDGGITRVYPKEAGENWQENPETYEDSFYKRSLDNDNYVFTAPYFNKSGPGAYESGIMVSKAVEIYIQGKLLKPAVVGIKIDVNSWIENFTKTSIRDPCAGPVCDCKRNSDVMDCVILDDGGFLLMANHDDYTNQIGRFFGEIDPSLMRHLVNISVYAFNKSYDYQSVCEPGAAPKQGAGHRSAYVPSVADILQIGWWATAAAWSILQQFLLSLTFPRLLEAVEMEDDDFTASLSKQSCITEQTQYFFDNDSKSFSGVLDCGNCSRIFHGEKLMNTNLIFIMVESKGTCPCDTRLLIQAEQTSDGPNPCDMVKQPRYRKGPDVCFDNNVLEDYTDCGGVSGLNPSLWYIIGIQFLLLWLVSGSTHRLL

Compound CCC[C@H](c1ncc2cc(CN3CCC(c4cccc(O)c4)(N(C)C)CC3)ccc2n1)N1C[C@@H](C)N[C@@H](C)C1 [Example 29, 3-(4-(Dimethylamino)-1-((2-((R)-1-((3S,5R)-3,5-dimethylpiperazin-1-yl)butyl)quinazolin-6-yl)methyl)piperidin-4-yl)phenol] has a Ki [1, 3] of 500 to 5000 nM and a Ki [2] of less than 100 nM.
CCCC(c1cnc2ccc(N3CCC(c4cccc(O)c4)(N(C)C)CC3)cc2n1)N1C[C@@H](C)N[C@@H](C)C1 (stereo partly drawn) [Example 33, 3-(4-(Dimethylamino)-1-(3-(1-((3S,5R)-3,5-dimethylpiperazin-1-yl)butyl)quinoxalin-6-yl)piperidin-4-yl)phenol] gave a Ki [1] of less than 500 nM and a Ki [2, 4] of less than 100 nM.
For CCCC(c1cnc2ccc(N3CCC(c4cccc(O)c4)(N(C)C)CC3)cc2c1)N1C[C@@H](C)N[C@@H](C)C1 (stereo partly drawn) [Example 14, 3-(4-(Dimethylamino)-1-(3-(1-((3S,5R)-3,5-dimethylpiperazin-1-yl)butyl)quinolin-6-yl)piperidin-4-yl)phenol], the Ki [1] was less than 500 nM and the Ki [2, 4] was greater than 500 nM.
CCCC(c1ncc2cc(CN3CCC(c4cccc(O)c4)(N(C)C)CC3)ccc2n1)N1C[C@@H](C)N[C@@H](C)C1 (stereo partly drawn) [Example 28, 3-(4-(Dimethylamino)-1-((2-(1-((3S,5R)-3,5-dimethylpiperazin-1-yl)butyl)quinazolin-6-yl)methyl)piperidin-4-yl)phenol] gave a Ki [1, 3] greater than 5000 nM and a Ki [2] of less than 100 nM.
CCC[C@@H](c1cnc2ccc(CN3CCC(c4cccc(O)c4)(N(C)C)CC3)cc2n1)N1C[C@@H](C)N[C@@H](C)C1 [Example 39, 3-(4-(Dimethylamino)-1-((3-((S)-1-((3S,5R)-3,5-dimethylpiperazin-1-yl)butyl)quinoxalin-6-yl)methyl)piperidin-4-yl)phenol] was tested, and the Ki [1, 3] was 500 to 5000 nM and the Ki [2] was less than 100 nM.
Compound CCC[C@@H](c1cnc2cc(N3CCC(c4cccc(O)c4)(N(C)C)CC3)ccc2c1)N1C[C@@H](C)N[C@@H](C)C1 [Example 5, 3-(4-(Dimethylamino)-1-(3-((S)-1-((3S,5R)-3,5-dimethylpiperazin-1-yl)butyl)quinolin-7-yl)piperidin-4-yl)phenol] has a Ki [1, 3] greater than 5000 nM and a Ki [2] of less than 100 nM.
With CCC[C@@H](c1cnc2ccc(N3CCC(c4cccc(O)c4)(N(C)C)CC3)cc2n1)N1C[C@@H](C)N[C@@H](C)C1 [Example 35, 3-(4-(Dimethylamino)-1-(3-((S)-1-((3S,5R)-3,5-dimethylpiperazin-1-yl)butyl)quinoxalin-6-yl)piperidin-4-yl)phenol] the Ki [1, 3] was 500 to 5000 nM and the Ki [2] was 100 to 500 nM.
With CCC[C@@H](c1ncc2cc(CN3CCC(c4cccc(O)c4)(N(C)C)CC3)ccc2n1)N1C[C@@H](C)N[C@@H](C)C1 [Example 30, 3-(4-(Dimethylamino)-1-((2-((S)-1-((3S,5R)-3,5-dimethylpiperazin-1-yl)butyl)quinazolin-6-yl)methyl)piperidin-4-yl)phenol] the Ki [1, 3] was greater than 5000 nM and the Ki [2] was less than 100 nM.
CCC[C@@H](c1cnc2ccc(CN3CCC(c4ccccc4)(N(C)C)CC3)cc2c1)N1C[C@@H](C)N[C@@H](C)C1 [Example 19, 1-((3-((S)-1-((3S,5R)-3,5-Dimethylpiperazin-1-yl)butyl)quinolin-6-yl)methyl)-N,N-dimethyl-4-phenylpiperidin-4-amine] gave a Ki [1, 3] greater than 5000 nM and a Ki [2] of less than 100 nM.
CCCC(c1ncc2cc(N3CCC(c4cccc(O)c4)(N(C)C)CC3)ccc2n1)N1C[C@@H](C)N[C@@H](C)C1 (stereo partly drawn) [Example 25, 3-(4-(Dimethylamino)-1-(2-(1-((3S,5R)-3,5-dimethylpiperazin-1-yl)butyl)quinazolin-6-yl)piperidin-4-yl)phenol] was tested, and the Ki [1] was greater than 5000 nM and the Ki [2, 4] was less than 100 nM.
Work on CCC[C@H](c1cnc2cc(CN3CCC(c4cccc(O)c4)(N(C)C)CC3)ccc2c1)N1C[C@@H](C)N[C@@H](C)C1 [Example 8, 3-(4-(Dimethylamino)-1-((3-((R)-1-((3S,5R)-3,5-dimethylpiperazin-1-yl)butyl)quinolin-7-yl)methyl)piperidin-4-yl)phenol] yielded a Ki [1] of less than 500 nM and a Ki [2, 4] of less than 100 nM.
CCC[C@@H](c1cnc2cc(CN3CCC(c4cccc(O)c4)(N(C)C)CC3)ccc2c1)N1C[C@@H](C)N[C@@H](C)C1 [Example 9, 3-(4-(Dimethylamino)-1-((3-((S)-1-((3S,5R)-3,5-dimethylpiperazin-1-yl)butyl)quinolin-7-yl)methyl)piperidin-4-yl)phenol] was tested, and the Ki [1, 3] was 500 to 5000 nM and the Ki [2] was less than 100 nM.
In the case of CCCC(c1cnc2ccc(CN3CCC(c4cccc(O)c4)(N(C)C)CC3)cc2c1)N1C[C@@H](C)N[C@@H](C)C1 (stereo partly drawn) [Example 15, 3-(4-(Dimethylamino)-1-((3-(1-((3S,5R)-3,5-dimethylpiperazin-1-yl)butyl)quinolin-6-yl)methyl)piperidin-4-yl)phenol], the Ki [1] is reported as less than 500 nM and the Ki [2, 4] is reported as less than 100 nM.
Work on CCC[C@H](c1cnc2cc(CN3CCC(c4ccccc4)(N(C)C)CC3)ccc2c1)N1C[C@@H](C)N[C@@H](C)C1 [Example 12, 1-((3-((R)-1-((3S,5R)-3,5-Dimethylpiperazin-1-yl)butyl)quinolin-7-yl)methyl)-N,N-dimethyl-4-phenylpiperidin-4-amine] yielded a Ki [1] of less than 500 nM and a Ki [2, 4] of 100 to 500 nM.
CCCC(c1cc2ccc(CN3CCC(c4cccc(O)c4)(N(C)C)CC3)cc2nc1CC)N1C[C@@H](C)N[C@@H](C)C1 (stereo partly drawn) [Example 21, 3-(4-(Dimethylamino)-1-((3-(1-((3S,5R)-3,5-dimethylpiperazin-1-yl)butyl)-2-ethylquinolin-7-yl)methyl)piperidin-4-yl)phenol] gave a Ki [1] of less than 500 nM and a Ki [2, 4] of less than 100 nM.
In the case of CCC[C@@H](c1cc2ccc(CN3CCC(c4cccc(O)c4)(N(C)C)CC3)cc2nc1CC)N1C[C@@H](C)N[C@@H](C)C1 [Example 24, 3-(4-(Dimethylamino)-1-((3-((S)-1-((3S,5R)-3,5-dimethylpiperazin-1-yl)butyl)-2-ethylquinolin-7-yl)methyl)piperidin-4-yl)phenol], the Ki [1, 3] is reported as 500 to 5000 nM and the Ki [2] is reported as less than 100 nM.
For CCC[C@@H](c1ccc2cc(CN3CCC(c4cccc(O)c4)(N(C)C)CC3)ccc2n1)N1C[C@@H](C)N[C@@H](C)C1 [Example 11, 3-(4-(Dimethylamino)-1-((2-((S)-1-((3S,5R)-3,5-dimethylpiperazin-1-yl)butyl)quinolin-6-yl)methyl)piperidin-4-yl)phenol], the Ki [1, 3] was 500 to 5000 nM and the Ki [2] was less than 100 nM.
CCC[C@@H](c1cnc2cc(CN3CCC(c4ccccc4)(N(C)C)CC3)ccc2c1)N1C[C@@H](C)N[C@@H](C)C1 [Example 13, 1-((3-((S)-1-((3S,5R)-3,5-Dimethylpiperazin-1-yl)butyl)quinolin-7-yl)methyl)-N,N-dimethyl-4-phenylpiperidin-4-amine] showed a Ki [1, 3] greater than 5000 nM and a Ki [2] of 100 to 500 nM.
CCC[C@@H](c1cnc2ccc(CN3CCC(c4cccc(O)c4)(N(C)C)CC3)cc2c1)N1C[C@@H](C)N[C@@H](C)C1 [Example 17, 3-(4-(Dimethylamino)-1-((3-((S)-1-((3S,5R)-3,5-dimethylpiperazin-1-yl)butyl)quinolin-6-yl)methyl)piperidin-4-yl)phenol] showed a Ki [1, 3] greater than 5000 nM and a Ki [2] of less than 100 nM.
In the case of CCC[C@H](c1cnc2ccc(CN3CCC(c4cccc(O)c4)(N(C)C)CC3)cc2n1)N1C[C@@H](C)N[C@@H](C)C1 [Example 38, 3-(4-(Dimethylamino)-1-((3-((R)-1-((3S,5R)-3,5-dimethylpiperazin-1-yl)butyl)quinoxalin-6-yl)methyl)piperidin-4-yl)phenol], the Ki [1] is reported as less than 500 nM and the Ki [2, 4] is reported as less than 100 nM.
CCCC(c1ccc2cc(N3CCC(c4cccc(O)c4)(N(C)C)CC3)ccc2n1)N1C[C@@H](C)N[C@@H](C)C1 (stereo partly drawn) [Example 3, 3-(4-(Dimethylamino)-1-(2-(1-((3S,5R)-3,5-dimethylpiperazin-1-yl)butyl)quinolin-6-yl)piperidin-4-yl)phenol] gave a Ki [1, 3] of 500 to 5000 nM and a Ki [2] of less than 100 nM.
CCC[C@H](c1nc2ccc(CN3CCC(c4cccc(O)c4)(N(C)C)CC3)cc2nc1CC)N1C[C@@H](C)N[C@@H](C)C1 [Example 41, 3-(4-(Dimethylamino)-1-((2-((R)-1-((3S,5R)-3,5-dimethylpiperazin-1-yl)butyl)-3-ethylquinoxalin-6-yl)methyl)piperidin-4-yl)phenol] was tested, and the Ki [1] was less than 500 nM and the Ki [2, 4] was less than 100 nM.
CCCC(c1cnc2ccc(CN3CCC(c4cccc(O)c4)(N(C)C)CC3)cc2n1)N1C[C@@H](C)N[C@@H](C)C1 (stereo partly drawn) [Example 37, 3-(4-(Dimethylamino)-1-((3-(1-((3S,5R)-3,5-dimethylpiperazin-1-yl)butyl)quinoxalin-6-yl)methyl)piperidin-4-yl)phenol] showed a Ki [1] of less than 500 nM and a Ki [2, 4] of less than 100 nM.
For CCC[C@H](c1cnc2ccc(CN3CCC(c4cccc(O)c4)(N(C)C)CC3)cc2c1)N1C[C@@H](C)N[C@@H](C)C1 [Example 16, 3-(4-(Dimethylamino)-1-((3-((R)-1-((3S,5R)-3,5-dimethylpiperazin-1-yl)butyl)quinolin-6-yl)methyl)piperidin-4-yl)phenol], the Ki [1] was less than 500 nM and the Ki [2, 4] was less than 100 nM.
